Legend:
[1] = Dissociation constant, pKa of the compound; assay type: physicochemical
[2] = Stability of compound at pH 1 assessed as half life; assay type: physicochemical; details: buffer
Cytochrome P450 1A2 = biological target: T1, Cytochrome P450 1A2 (Homo sapiens, UniProt P05177); test: Inhibition of CYP1A2 (unknown origin); assay type: ADME
T1 sequence (P05177 whole entry): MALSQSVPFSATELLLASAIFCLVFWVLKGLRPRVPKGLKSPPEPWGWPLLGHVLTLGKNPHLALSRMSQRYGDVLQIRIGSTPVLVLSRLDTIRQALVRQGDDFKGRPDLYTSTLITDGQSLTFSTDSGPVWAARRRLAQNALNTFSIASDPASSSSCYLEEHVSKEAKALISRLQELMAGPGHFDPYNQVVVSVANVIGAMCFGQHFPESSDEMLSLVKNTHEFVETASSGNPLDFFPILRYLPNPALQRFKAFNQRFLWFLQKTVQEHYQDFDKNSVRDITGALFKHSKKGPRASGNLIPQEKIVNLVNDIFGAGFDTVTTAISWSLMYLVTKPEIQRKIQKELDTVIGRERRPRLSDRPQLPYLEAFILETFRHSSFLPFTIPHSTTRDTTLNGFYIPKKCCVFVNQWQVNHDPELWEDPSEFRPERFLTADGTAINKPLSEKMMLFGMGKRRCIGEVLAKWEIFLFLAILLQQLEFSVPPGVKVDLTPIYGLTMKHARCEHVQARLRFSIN

[3] = Metabolic stability in mouse liver microsomes assessed as compound remaining; assay type: ADME, Microsome
[4] = Cmax in CD-1 mouse at 3 mg/kg, po by LC/MS analysis; assay type: ADME, organism-based; set-up: route oral, dose 3 mg/kg; details: in vivo
[5] = AUCtot in CD-1 mouse at 3 mg/kg, po by LC/MS analysis; assay type: ADME, organism-based; set-up: time AUCmax, route oral, dose 3 mg/kg; details: in vivo
Cytochrome P450 2B6 = biological target: T2, Cytochrome P450 2B6 (Homo sapiens, UniProt P20813); test: Inhibition of CYP2B6 (unknown origin); assay type: ADME
T2 sequence (P20813 whole entry): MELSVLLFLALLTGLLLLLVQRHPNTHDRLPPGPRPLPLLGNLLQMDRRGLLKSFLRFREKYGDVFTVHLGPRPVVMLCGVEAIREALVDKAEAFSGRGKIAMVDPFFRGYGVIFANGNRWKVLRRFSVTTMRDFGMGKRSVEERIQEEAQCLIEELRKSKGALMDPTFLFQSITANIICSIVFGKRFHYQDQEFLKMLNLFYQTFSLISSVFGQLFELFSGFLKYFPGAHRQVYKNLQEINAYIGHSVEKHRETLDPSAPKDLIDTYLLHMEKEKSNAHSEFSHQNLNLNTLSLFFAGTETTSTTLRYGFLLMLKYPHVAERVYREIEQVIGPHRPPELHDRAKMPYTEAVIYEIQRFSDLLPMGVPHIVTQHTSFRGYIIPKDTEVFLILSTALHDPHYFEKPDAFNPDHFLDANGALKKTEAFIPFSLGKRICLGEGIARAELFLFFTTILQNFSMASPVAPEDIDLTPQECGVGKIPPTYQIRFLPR

[6] = biological target: T3, Methylated-DNA--protein-cysteine methyltransferase (Homo sapiens, UniProt P16455); test: Inhibition of human MGMT using 06-benzylguanine as substrate incubated for 30 mins by LC/MS analysis; details: 0.5 h
T3 sequence (P16455 whole entry): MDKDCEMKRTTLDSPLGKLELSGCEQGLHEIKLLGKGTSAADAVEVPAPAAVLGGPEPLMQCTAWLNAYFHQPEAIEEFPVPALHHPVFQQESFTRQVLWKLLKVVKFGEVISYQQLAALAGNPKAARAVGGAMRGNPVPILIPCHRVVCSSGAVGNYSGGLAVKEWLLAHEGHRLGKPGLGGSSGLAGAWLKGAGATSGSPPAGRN

[7] = Plasma concentration in human MPO transgenic thioglycollate-induced peritonitis mouse model at 10 mg/kg, po measured after 6 hrs by LC/MS analysis; assay type: ADME, organism-based
[8] = Plasma concentration in human MPO transgenic thioglycollate-induced peritonitis mouse model at 30 mg/kg, po measured after 6 hrs by LC/MS analysis; assay type: ADME, organism-based
[9] = Protein binding in human plasma assessed as free fraction; assay type: ADME, cell-free
[10] = Permeability of compound at pH 7.4 by PAMPA assay; assay type: ADME; details: read-out: permeability
Thyroid peroxidase = biological target: T4, Thyroid peroxidase (Homo sapiens, UniProt P07202); test: Inhibition of TPO (unknown origin) using 3-iodo tyrosine as substrate incubated for 10 mins
T4 sequence (P07202 whole entry): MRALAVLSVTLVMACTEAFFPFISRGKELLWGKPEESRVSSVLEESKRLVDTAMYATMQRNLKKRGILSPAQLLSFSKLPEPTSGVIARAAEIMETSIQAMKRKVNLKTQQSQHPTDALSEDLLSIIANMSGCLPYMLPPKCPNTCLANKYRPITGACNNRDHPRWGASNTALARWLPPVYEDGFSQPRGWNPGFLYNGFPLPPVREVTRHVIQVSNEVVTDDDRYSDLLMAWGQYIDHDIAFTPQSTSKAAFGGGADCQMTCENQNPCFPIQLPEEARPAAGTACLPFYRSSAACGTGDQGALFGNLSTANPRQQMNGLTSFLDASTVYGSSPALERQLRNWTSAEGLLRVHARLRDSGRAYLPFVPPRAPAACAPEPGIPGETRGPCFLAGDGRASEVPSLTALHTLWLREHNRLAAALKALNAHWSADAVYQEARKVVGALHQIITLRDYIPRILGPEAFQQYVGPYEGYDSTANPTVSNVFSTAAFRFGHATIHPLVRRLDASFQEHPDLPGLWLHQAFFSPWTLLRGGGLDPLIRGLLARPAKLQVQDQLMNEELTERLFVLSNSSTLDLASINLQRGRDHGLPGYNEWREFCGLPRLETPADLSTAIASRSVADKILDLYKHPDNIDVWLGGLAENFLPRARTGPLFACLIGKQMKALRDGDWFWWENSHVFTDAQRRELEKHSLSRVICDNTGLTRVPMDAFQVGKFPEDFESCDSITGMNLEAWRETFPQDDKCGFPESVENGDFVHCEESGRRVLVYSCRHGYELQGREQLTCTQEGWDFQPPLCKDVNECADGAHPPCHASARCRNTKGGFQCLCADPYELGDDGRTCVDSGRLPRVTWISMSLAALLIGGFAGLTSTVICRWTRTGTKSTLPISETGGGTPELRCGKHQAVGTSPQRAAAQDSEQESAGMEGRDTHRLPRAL

pKa [1]: 7.4
half-life [2]: > 100 h
IC50 (Cytochrome P450 1A2): > 10 µM
Stabilty [3]: 39%
Cmax [4]: 13 µM
AUC [5]: 47.9 µM·h
IC50 (Cytochrome P450 2B6): > 10 µM
inhibition (INH) [6]: Not Active
concentration at 6 h [7]: 7 µM
concentration at 6 h [8]: 26 µM
fraction unbound [9]: 0.17
Papp [10]: 313 nm/s
IC50 (Thyroid peroxidase): 2.2 µM
Compound: Nc1cc(Cc2ccccc2)c2nn[nH]c2n1

From ChEMBL document CHEMBL4699540, “Discovery and structure activity relationships of 7-benzyl triazolopyridines as stable, selective, and reversible inhibitors of myeloperoxidase” (Bioorg Med Chem, 2020)
